Patent US8946431B2, “2-(substituted ethynyl)quinoline derivatives as mGLUr5 antagonists” (Korea Institute of Science and Technology, priority 2013, dated 2015)

Assays:
mGluR5 [1] = target: T1, mGluR5 (Homo sapiens, UniProt P41594); assay: Assay for m-GluR5 activity using FDSS6000 (calcium mobilization by L-glutamate in mGluR5/HEK293 cells); format: cell-based; conditions: L-glutamate 10 uM, HEK cells expressing m-GluR5; for inhibition at 1 µM / inhibition at 10 µM: HEK293, read-out: % Inhibition rate (mGluR5)
T1 construct: host or cells: HEK293 (human embryonic kidney) cells stably expressing m-GluR5
Procedure: Inhibitory activity (%) of the compound represented by Formula 1 on calcium mobilization developed at a high concentration of glutamate in mGluR5/HEK293 cells was measured by using a high throughput FDSS6000.
After HEK cells stably expressing m-GluR5 (Human embryonic kidney cell line; m-GluR5: Yonsei University) were prepared at a density of 4×10^4/Ml per well, aliquots of 100 μl from the cell suspension were distributed evenly into a 96-well plate and incubated for 18 hr at 37° C., 5% CO2. The well plate was washed with a HBSS buffer to remove the culture medium, and reacted with a HBSS buffer containing a Ca^2+ fluorescent dye (FLIPR Calcium 5 assay kit: Molecular Devices) for 30 min at 37° C., 5% CO2, thereby labeling with the fluorescent dye. Separately from the 96-well plate including the cells, another 96-well plate including L-glutamate (final concentration: 10 uM) capable of activating m-GluR5 and a blacking agent was prepared. Since most of cell-based HTS devices are equipped with a liquid application system for injection of a drug, but have no liquid sucking system, the blocking agent to be tested and L-glutamate were respectively provided at a 6-fold higher concentration in a HBSS buffer at the amount of 25 μl, diluted by six-times at the final cell plate volume of 150 μl, and then used in this assay. Briefly, the FDSS6000 assay was carried out by recording a reference level of 20 sec, pre-treating with a blocking agent for 75 sec, and then measuring the change in intracellular calcium level depending on the administration of L-glutamate. After the area of a 480/520 ratio value in a control without treatment of a test drug was set to 100%, an inhibitory effect of the test drug was calculated as a percentage (%) thereon.
For accurate calcium imaging, the light source of 4 xenon lamps in FDSS6000 were radiated to selectively expose the cells to the excitation wavelength (480 nm) by a computer-controlled filter wheel. Data were obtained at intervals of 1.23 sec. The emitter fluorescence light inflowed through a 520 nm long-pass filter was obtained as an average 480/520 ratio value for each well in the 96-wells by using a CCD camera and a digital fluorescence analyzer in FDSS6000. All image data and analyses were obtained by using a FDSS6000-exclusive program from Hamamatsu Photonics.

[2] = HLM (human liver microsomal) stability; format: in vitro ADME; conditions: human liver microsomes
CYP2D6 = CYP2D6 (Homo sapiens, UniProt P10635); assay: CYP inhibitory rate, CYP2D6; format: in vitro ADME
CYP2C9 = CYP2C9 (Homo sapiens, UniProt P11712); assay: CYP inhibitory rate, CYP2C9; format: in vitro ADME
CYP3A4 = CYP3A4 (Homo sapiens, UniProt P08684); assay: CYP inhibitory rate, CYP3A4; format: in vitro ADME
mGluR5 [3] = target: T1, mGluR5; assay: Inhibitory concentration (IC50) on mGluR5; format: cell-based
hERG = hERG (Homo sapiens, UniProt Q12809); assay: Inhibitory concentration (IC50) on hERG
Sequence of hERG (Q12809 whole entry): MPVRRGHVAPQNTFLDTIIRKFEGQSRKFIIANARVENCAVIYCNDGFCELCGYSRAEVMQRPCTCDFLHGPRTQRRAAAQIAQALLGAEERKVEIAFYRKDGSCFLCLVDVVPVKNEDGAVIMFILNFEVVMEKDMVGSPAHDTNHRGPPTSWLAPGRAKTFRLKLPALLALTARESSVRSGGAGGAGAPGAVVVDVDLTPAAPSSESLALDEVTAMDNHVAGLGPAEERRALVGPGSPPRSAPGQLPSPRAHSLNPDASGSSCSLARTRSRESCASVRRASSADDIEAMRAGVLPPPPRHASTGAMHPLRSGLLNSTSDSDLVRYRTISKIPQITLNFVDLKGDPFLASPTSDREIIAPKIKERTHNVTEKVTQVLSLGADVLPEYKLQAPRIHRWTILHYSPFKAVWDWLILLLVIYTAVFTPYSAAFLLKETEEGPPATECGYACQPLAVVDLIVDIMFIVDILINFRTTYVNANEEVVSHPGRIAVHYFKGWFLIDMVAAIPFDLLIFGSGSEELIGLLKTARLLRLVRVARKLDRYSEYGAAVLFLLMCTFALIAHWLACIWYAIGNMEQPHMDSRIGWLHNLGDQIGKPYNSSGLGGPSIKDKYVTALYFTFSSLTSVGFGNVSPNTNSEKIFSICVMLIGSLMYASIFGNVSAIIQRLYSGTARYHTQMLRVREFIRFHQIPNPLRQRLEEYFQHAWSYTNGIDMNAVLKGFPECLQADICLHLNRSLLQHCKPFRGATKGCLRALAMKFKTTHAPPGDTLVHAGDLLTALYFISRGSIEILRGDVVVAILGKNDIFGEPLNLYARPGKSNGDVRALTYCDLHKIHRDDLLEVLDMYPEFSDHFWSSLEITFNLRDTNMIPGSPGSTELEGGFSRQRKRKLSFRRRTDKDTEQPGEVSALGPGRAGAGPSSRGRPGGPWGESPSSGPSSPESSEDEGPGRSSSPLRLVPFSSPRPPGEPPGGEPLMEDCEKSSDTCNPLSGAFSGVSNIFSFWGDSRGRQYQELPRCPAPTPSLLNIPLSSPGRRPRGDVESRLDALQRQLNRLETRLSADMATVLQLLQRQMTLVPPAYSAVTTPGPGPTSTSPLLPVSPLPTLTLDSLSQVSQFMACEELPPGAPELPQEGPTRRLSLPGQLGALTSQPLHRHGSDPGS

T1 sequence (P41594 21-1212): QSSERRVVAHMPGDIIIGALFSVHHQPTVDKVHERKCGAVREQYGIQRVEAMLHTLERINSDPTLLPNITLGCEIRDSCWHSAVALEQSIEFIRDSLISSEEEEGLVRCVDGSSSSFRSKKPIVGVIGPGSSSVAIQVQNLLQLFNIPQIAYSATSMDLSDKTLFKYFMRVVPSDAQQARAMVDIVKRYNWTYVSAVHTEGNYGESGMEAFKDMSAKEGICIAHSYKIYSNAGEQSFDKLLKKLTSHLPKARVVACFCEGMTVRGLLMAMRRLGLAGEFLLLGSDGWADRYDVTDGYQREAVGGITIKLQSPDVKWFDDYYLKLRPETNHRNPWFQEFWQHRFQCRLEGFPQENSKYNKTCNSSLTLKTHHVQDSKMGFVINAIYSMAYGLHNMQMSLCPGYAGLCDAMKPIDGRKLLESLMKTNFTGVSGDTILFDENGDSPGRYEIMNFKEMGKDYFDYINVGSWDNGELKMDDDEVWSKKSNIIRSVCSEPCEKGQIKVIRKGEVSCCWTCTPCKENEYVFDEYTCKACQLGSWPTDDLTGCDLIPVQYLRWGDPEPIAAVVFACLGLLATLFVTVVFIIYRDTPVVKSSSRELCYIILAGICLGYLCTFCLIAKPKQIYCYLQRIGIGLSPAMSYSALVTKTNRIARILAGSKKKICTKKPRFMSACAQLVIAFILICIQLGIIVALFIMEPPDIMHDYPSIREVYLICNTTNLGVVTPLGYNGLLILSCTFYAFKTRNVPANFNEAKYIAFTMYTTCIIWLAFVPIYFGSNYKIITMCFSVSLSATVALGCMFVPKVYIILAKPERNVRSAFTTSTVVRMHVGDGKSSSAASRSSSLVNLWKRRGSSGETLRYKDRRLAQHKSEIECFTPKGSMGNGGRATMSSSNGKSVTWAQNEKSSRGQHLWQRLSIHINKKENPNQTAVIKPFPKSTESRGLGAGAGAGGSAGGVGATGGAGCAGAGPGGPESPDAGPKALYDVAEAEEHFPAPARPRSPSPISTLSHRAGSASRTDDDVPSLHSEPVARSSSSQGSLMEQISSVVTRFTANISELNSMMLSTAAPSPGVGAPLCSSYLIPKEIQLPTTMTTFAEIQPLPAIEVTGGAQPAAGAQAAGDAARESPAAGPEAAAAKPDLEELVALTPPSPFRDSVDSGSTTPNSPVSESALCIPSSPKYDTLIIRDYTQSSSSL
Sequence of CYP3A4 (P08684 whole entry): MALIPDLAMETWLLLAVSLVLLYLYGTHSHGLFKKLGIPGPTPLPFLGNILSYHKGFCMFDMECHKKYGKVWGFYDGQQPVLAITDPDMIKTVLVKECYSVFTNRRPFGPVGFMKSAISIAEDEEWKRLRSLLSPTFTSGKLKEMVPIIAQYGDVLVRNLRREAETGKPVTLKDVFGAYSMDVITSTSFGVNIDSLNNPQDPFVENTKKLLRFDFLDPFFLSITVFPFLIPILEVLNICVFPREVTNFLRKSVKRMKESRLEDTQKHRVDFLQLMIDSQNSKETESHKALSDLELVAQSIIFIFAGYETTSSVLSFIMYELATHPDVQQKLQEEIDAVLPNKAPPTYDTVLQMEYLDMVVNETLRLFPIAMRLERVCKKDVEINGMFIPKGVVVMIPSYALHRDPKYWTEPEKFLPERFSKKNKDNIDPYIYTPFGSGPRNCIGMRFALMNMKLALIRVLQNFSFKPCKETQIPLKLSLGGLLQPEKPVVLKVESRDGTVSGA
Sequence of CYP2C9 (P11712 whole entry): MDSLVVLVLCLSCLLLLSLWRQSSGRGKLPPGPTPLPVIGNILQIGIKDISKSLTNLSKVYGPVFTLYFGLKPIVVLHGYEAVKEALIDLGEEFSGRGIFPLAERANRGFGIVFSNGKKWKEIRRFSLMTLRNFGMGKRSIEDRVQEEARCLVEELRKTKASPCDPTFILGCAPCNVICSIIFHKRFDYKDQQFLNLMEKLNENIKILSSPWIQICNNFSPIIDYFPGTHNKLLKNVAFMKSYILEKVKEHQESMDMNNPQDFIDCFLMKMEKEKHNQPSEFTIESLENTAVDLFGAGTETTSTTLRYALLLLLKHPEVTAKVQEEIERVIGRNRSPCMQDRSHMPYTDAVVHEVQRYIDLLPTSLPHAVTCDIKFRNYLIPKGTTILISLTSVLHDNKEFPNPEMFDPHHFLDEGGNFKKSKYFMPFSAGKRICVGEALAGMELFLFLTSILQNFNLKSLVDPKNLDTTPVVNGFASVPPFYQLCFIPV
Sequence of CYP2D6 (P10635 whole entry): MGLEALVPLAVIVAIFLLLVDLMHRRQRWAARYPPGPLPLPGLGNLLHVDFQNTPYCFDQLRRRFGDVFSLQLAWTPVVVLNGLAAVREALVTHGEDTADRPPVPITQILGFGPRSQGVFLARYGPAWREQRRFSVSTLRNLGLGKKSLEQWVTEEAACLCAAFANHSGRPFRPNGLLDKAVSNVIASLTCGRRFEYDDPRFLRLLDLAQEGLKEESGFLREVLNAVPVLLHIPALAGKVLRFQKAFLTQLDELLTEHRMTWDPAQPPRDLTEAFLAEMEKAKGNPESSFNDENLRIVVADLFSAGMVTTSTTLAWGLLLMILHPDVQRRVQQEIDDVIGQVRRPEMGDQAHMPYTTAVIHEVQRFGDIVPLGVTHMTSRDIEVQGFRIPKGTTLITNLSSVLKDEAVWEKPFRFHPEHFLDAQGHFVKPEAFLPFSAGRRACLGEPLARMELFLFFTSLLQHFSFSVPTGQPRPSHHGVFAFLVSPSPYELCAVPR

Row | inhibition at 1 µM (mGluR5 [1]; 1 μM compound) | inhibition at 10 µM (mGluR5 [1]; 10 μM compound) | Structure (SMILES) | further results
1 | 35.9% | 67.7% | C(#Cc1ccc2ccccc2n1)c1ccccc1 [Example 11, 2-(Phenylethynyl)quinoline] | –
2 | 31% | 64.3% | Clc1cccc2nc(C#Cc3ccccn3)ccc12 [Example 12, 5-Chloro-2-(pyridine-2-ylethynyl)quinoline] | –
3 | 9.49% | 16.4% | FC(F)(F)c1cccnc1C#Cc1ccc2ccccc2n1 [Example 13, 2-((3-(Trifluoromethyl)pyridine-2-yl)ethynyl)quinoline] | –
4 | 63.6% | 68% | COc1cccc2nc(C#Cc3ccccc3)ccc12 [Example 14, 5-Methoxy-2-(phenylethynyl)quinoline] | HLM % remaining after 30 min [2]: <1%; CYP (% remaining @ 10 μM) CYP2D6 (CYP2D6): >99%; CYP (% remaining @ 10 μM) CYP2C9 (CYP2C9): 55%; CYP (% remaining @ 10 μM) CYP3A4 (CYP3A4): 50%
5 | – | – | CC(C)(C)C(=O)Oc1cccc2nc(C#Cc3ccccc3)ccc12 [Example 15, 2-(Phenylethynyl)quinoline-5-ylpivalate] | % Inhibition rate (mGluR5) (mGluR5 [1]; 1 μM compound): 24.03%; % Inhibition rate (mGluR5) (mGluR5 [1]; 10 μM compound): 23.77%
6 | 18% | 24.3% | Oc1cccc2nc(C#Cc3ccccc3)ccc12 [Example 16, 2-(Phenylethynyl)quinoline-5-ol] | –
7 | 11.7% | 8.02% | Clc1cccc2nc(C#Cc3ccccc3)ccc12 [Example 17, 5-Chloro-2-(phenylethynyl)quinoline] | –
8 | 21.1% | 20.7% | Brc1cccc2nc(C#Cc3ccccc3)ccc12 [Example 18, 5-Bromo-2-(phenylethynyl)quinoline] | –
9 | 43.9% | 65.8% | C(#Cc1ccc2ccccc2n1)c1cccnc1 [Example 19, 2-(Pyridine-3-ylethynyl)quinoline] | –
10 | 67.7% | 67.7% | COc1cccc2nc(C#Cc3cccnc3)ccc12 [Example 20, 5-Methoxy-2-(pyridine-3-ylethynyl)quinoline] | –
11 | 47.2% | 66.6% | CCOc1cccc2nc(C#Cc3cccnc3)ccc12 [Example 21, 5-Ethoxy-2-(pyridine-3-ylethynyl)quinoline] | –
12 | – | – | CC(C)(C)C(=O)Oc1cccc2nc(C#Cc3cccnc3)ccc12 [Example 22, 2-(Pyridine-3-ylethynyl)quinoline-5-ylpivalate] | % Inhibition rate (mGluR5) (mGluR5 [1]; 1 μM compound): 10.56%; % Inhibition rate (mGluR5) (mGluR5 [1]; 10 μM compound): 28.5%
13 | 25.2% | 17.6% | Oc1cccc2nc(C#Cc3cccnc3)ccc12 [Example 23, 2-(Pyridine-3-ylethynyl)quinoline-5-ol] | –
14 | 11.2% | 28.4% | Clc1cccc2nc(C#Cc3cccnc3)ccc12 [Example 24, 5-Chloro-2-(pyridine-3-ylethynyl)quinoline] | –
15 | 22% | 40.1% | Brc1cccc2nc(C#Cc3cccnc3)ccc12 [Example 25, 5-Bromo-2-(pyridine-3-ylethynyl)quinoline] | –
16 | – | – | CC(C)(C)C(=O)Oc1cccc2nc(C#Cc3ccccn3)ccc12 [Example 27, 2-(Pyridine-2-ylethynyl)quinoline-5-ylpivalate] | % Inhibition rate (mGluR5) (mGluR5 [1]; 1 μM compound): 17.12%; % Inhibition rate (mGluR5) (mGluR5 [1]; 10 μM compound): 62.44%
17 | 17.4% | 22.1% | Oc1cccc2nc(C#Cc3ccccn3)ccc12 [Example 28, 2-(Pyridine-2-ylethynyl)quinoline-5-ol] | –

Row | inhibition at 1 µM (mGluR5 [1]; 1 μM compound) | inhibition at 10 µM (mGluR5 [1]; 10 μM compound) | Structure (SMILES) | further results
18 | 56.7% | 77.5% | Brc1cccc2nc(C#Cc3ccccn3)ccc12 [Example 29, 5-Bromo-2-(pyridine-2-ylethynyl)quinoline] | –
19 | 31.3% | 55.2% | Fc1cccnc1C#Cc1ccc2ccccc2n1 [Example 30, 2-((3-Fluoropyridine-2-yl)ethynyl)quinoline] | –
20 | 18.9% | 40.1% | Cc1cccnc1C#Cc1ccc2ccccc2n1 [Example 31, 2-((3-Methylpyridine-2-yl)ethynyl)quinoline] | –
21 | 23.3% | 58% | FC(F)(F)c1ccnc(C#Cc2ccc3ccccc3n2)c1 [Example 32, 2-((4-(Trifluoromethyl)pyridine-2-yl)ethynyl)quinoline] | –
22 | 35.2% | 76.1% | N#Cc1ccnc(C#Cc2ccc3ccccc3n2)c1 [Example 33, 2-(Quinoline-2-ylethynyl)isonicotinonitrile] | –
23 | 21.9% | 66.5% | Cc1ccnc(C#Cc2ccc3ccccc3n2)c1 [Example 34, 2-((4-Methylpyridine-2-yl)ethynyl)quinoline] | –
24 | 13% | 50.7% | FC(F)(F)c1ccc(C#Cc2ccc3ccccc3n2)nc1 [Example 35, 2-((5-(Trifluoromethyl)pyridine-2-yl)ethynyl)quinoline] | –
25 | 33.9% | 63.3% | Fc1ccc(C#Cc2ccc3ccccc3n2)nc1 [Example 36, 2-((5-Fluoropyridine-2-yl)ethynyl)quinoline] | –
26 | 29% | 66.3% | Cc1ccc(C#Cc2ccc3ccccc3n2)nc1 [Example 37, 2-((5-Methylpyridine-2-yl)ethynyl)quinoline] | –
27 | 15.8% | 28.7% | FC(F)(F)c1cccc(C#Cc2ccc3ccccc3n2)n1 [Example 38, 2-((6-(Trifluoromethyl)pyridine-2-yl)ethynyl)quinoline] | –
28 | 33% | 64.8% | N#Cc1cccc(C#Cc2ccc3ccccc3n2)n1 [Example 39, 6-(Quinoline-2-ylethynyl)picolinonitrile] | IC50 (mGluR5 [3]): 0.75 ± 0.17 µM; IC50 (hERG): 22.7 ± 7.04 µM; HLM % remaining after 30 min [2]: 98%; CYP (% remaining @ 10 μM) CYP2D6 (CYP2D6): 78%; CYP (% remaining @ 10 μM) CYP2C9 (CYP2C9): 52%; CYP (% remaining @ 10 μM) CYP3A4 (CYP3A4): 56%
29 | 29.6% | 46.9% | Fc1cccc(C#Cc2ccc3ccccc3n2)n1 [Example 40, 2-((6-Fluoropyridine-2-yl)ethynyl)quinoline] | –
30 | 16.6% | 48.6% | COc1cccc(C#Cc2ccc3ccccc3n2)n1 [Example 41, 2-((6-Methoxypyridine-2-yl)ethynyl)quinoline] | –
31 | 17.1% | 28.6% | C(#Cc1ncccn1)c1ccc2ccccc2n1 [Example 42, 2-(Pyrimidine-2-ylethynyl)quinoline] | –
32 | 17.3% | 15.9% | FC(F)(F)c1ccnc(C#Cc2ccc3ccccc3n2)n1 [Example 43, 2-((4-(Trifluoromethyl)pyrimidine-2-yl)ethynyl)quinoline] | –
33 | 16% | 15.6% | Fc1cnc(C#Cc2ccc3ccccc3n2)nc1 [Example 44, 2-((5-Fluoropyrimidine-2-yl)ethynyl)quinoline] | –
34 | 13.6% | 22.4% | C(#Cc1ccc2ccccc2n1)c1cncnc1 [Example 45, 2-(Pyrimidine-5-ylethynyl)quinoline] | –
